# According to US8420776B2, “Ube2G2 binding domain in the ubiquitin ligase gp78 and methods of use thereof” (The United States of America, as Represented by the …, priority 2004, dated 2013):
# Assays:
# Type in all cases: cell-based
# endogenous UbcH5B = biological target: T1, endogenous UbcH5B (Homo sapiens, UniProt P62837); assay: Co-immunoprecipitation of endogenous UbcH5B with GFP fusions in HEK 293T cells; details: anti-GFP IP
# T1 construct: endogenous in cells; host or cells: HEK 293T
# Protocol: (§1) Transfections of HT1080, NIH 3T3 and HEK 293T cells were carried out ˜24 hr after plating using Polyfect (Qiagen, Valencia, Calif.) and cells harvested after ˜48 hr. J558 cells were transfected by electroporation using Bio-rad GENE pulser II at settings of 250 v, 950uF. Vector without insert was used to equalize total plasmid. In most experiments 0.15 μg of pEGFP-C1 served as an internal control. For experiments not involving immunoprecipitation, 6×10^5 cells were plated in 6 well plates and cell lysis was with Mammalian Protein Extraction Reagent (Pierce). […] Supernatants were analyzed after a 10,000×g centrifugation using standard techniques for immunoprecipitation, SDS-PAGE, immunoblotting and ECL. […]
# (§2) FIG. 6 depicts the specific binding of gp78 residues 574-611 (of SEQ ID NO:2) to endogenous Ube2G2 in HEK 293T cells. Cells were transfected with plasmids encoding GFP fusions of the indicated regions of gp78, and co-immunoprecipitation was evaluated. […]
# (§3) To determine the specificity of E2 binding in cells, GFP fusions encompassing the E2 binding region were expressed in cells, and co-immunoprecipitation of endogenous E2 was tested using antibodies raised specifically against Ube2g1, Ube2G2 and UbcH5B (FIG. 19B). […] In contrast, and consistent with the in vitro binding data in FIG. 18, no association with endogenous UbcH5B or Ube2g1 was detected (FIG. 19B third and fourth panels, left). […]
# NIH 3T3 cells [1] = assay: UPR markers in NIH 3T3 cells expressing GFP fusions
# Protocol: (§4) Transfections of HT1080, NIH 3T3 and HEK 293T cells were carried out ˜24 hr after plating using Polyfect (Qiagen, Valencia, Calif.) and cells harvested after ˜48 hr. J558 cells were transfected by electroporation using Bio-rad GENE pulser II at settings of 250 v, 950uF. Vector without insert was used to equalize total plasmid. In most experiments 0.15 μg of pEGFP-C1 served as an internal control. For experiments not involving immunoprecipitation, 6×10^5 cells were plated in 6 well plates and cell lysis was with Mammalian Protein Extraction Reagent (Pierce). For immunoprecipitation, 2.4×10^6 cells were seeded in 100 mm dishes and cells were lysed in RIPA buffer (1×PBS, 1% Nonidet P40. 0.5% sodium deoxycholate, 0.1% SDS). Lysis buffers were supplemented with Protease Inhibitor Cocktail (Sigma) and 10 mM iodoacetamide. Supernatants were analyzed after a 10,000×g centrifugation using standard techniques for immunoprecipitation, SDS-PAGE, immunoblotting and ECL. Treatment of cells with MG132 (Sigma) was at 50 μM for eight hr. Cycloheximnide was used at 50 μg/ml. All cells were collected at the end of the six hr chase.
# (§5) Similarly, an increase in phospho-eIF2α, which attenuates translation and is activated by PERK, was also observed. […] An effective UPR ultimately requires an increase in ERAD. However, the ectopic expression of the Ube2G2 binding site should create a block specifically at this point.
# endogenous Ube2G2 = biological target: T2, endogenous Ube2G2 (Homo sapiens, UniProt P60604); assay: Co-immunoprecipitation of endogenous Ube2G2 with GFP fusions in HEK 293T cells; details: anti-GFP IP
# T2 construct: endogenous in cells; host or cells: HEK 293T
# T2 sequence (P60604 1-165): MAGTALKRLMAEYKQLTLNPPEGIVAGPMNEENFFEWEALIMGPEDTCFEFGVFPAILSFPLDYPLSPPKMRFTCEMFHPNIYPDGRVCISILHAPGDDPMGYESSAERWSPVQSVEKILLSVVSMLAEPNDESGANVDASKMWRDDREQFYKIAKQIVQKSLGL
# Protocol: as §1, §2, §3
# endogenous Ube2g1 = biological target: T3, endogenous Ube2g1 (Homo sapiens, UniProt P62253); assay: Co-immunoprecipitation of endogenous Ube2G1 with GFP fusions in HEK 293T cells; details: anti-GFP IP
# T3 construct: endogenous in cells; host or cells: HEK 293T
# T3 sequence (P62253 1-170): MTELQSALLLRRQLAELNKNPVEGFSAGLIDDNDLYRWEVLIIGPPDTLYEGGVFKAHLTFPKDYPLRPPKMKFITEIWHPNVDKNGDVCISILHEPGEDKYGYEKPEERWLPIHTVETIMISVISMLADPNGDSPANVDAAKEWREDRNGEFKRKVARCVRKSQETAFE
# Protocol: as §1, §2, §3
# J558 cells [2] = assay: Loss of J558 cells expressing GFP fusions by microscopy; details: relative to GFP574-611E2-m2
# Protocol: (§6) This was verified by a rapid loss of GFP immunoreactivity from cells expressing GFP574-611 (FIG. 7C). To confirm that this is a consequence of apoptosis, cells were evaluated by flow cytometry 24 hours after transfection. This early point was chosen, as by 48 hours few cells expressing the GFP574-611 could be discerned microscopically. […] Thus, the isolated Ube2G2 binding site of gp78 initiates an UPR in cells and a program leading to apoptotic cell death preferentially in myeloma cells.
# ERAD substrate TCR-α = assay: TCR-α level in co-transfected cells; details: co-transfection with TCR-α
# Protocol: as §4
# FIG. 9 depicts the stabilization of endogenous TCRα by the G2BD. TCR-α is a subunit of the T cell antigent receptor and an ERAD substrate. TCR-α was stabilized by the region implicated in Ube2G2 binding.
# (§7) To test this, GFP fusions of either a minimal E2 binding domain (GFP-574-611) or a more extended region that includes the C-terminus of gp78 (GFP-574-643) were evaluated (FIG. 21A). […] To assess this further, the C-terminal region of gp78 was fused to the eight amino acid Flag tag. […] Mdm2 is a RING finger E3 for both itself and p53 that is neither an ERAD substrate nor known to utilize Ube2G2 as an E2. […] To establish with certainty that the effect observed with expression of the Ube2G2 binding site is a consequence of binding endogenous E2, and not due to other unanticipated effects, cells were co-transfected with increasing amounts of Ube2G2 (FIG. 21C, lanes 3 and 4). […] These findings clearly establish that the isolated E2 binding site has the potential to markedly alter ERAD of CD3-δ. To ensure the effect observed was not peculiar to one substrate, TCR-α was evaluated (FIG. 21D).
# [3] = system: human multiple myeloma cells; assay: Ube2G2 binding site expression in human myeloma
# HeLA, U20S and HT1080 = assay: Cell death in epithelial cancer and sarcoma cell lines
# Description: as §5
# NIH 3T3 cells [4] = assay: Annexin V staining by flow cytometry in NIH 3T3 cells; details: 24 hours after transfection
# Description: (§8) 24 hr after transfection with constructs encoding GFP or GFP fusion proteins, cells were stained with annexin V-PE (BD Pharmingen) and analyzed on a Beckman coulter XL. Data for J558 was average of three experiments, NIH 3T3 was from 2 experiments. Gates were set to analyze cells expressing GFP using 525 band-pass filter and evaluated for annexin V-PE staining using a 575 band-pass filter. To isolate cells expressing GFP, J558 cells were harvested 24 hr after transfection and sorted on a BD FACS Aria. Transfection efficiencies were 7-10%. 2×10^4 cells expressing GFP fusions were isolated.
# as §6
# J558 cells [5] = assay: Annexin V staining by flow cytometry in J558 cells; details: 24 hours after transfection, vs GFP574-611E2-m2 or GFP alone
# Description: as §8, §6
# J558 cells [6] = assay: UPR markers in J558 myeloma cells expressing GFP fusions
# Protocol: as §4, §8
# Cells with active secretory pathways, such as myeloma, might be predicted to be particularly susceptible to ER stress. […] As with NIH 3T3 cells, expression of the Ube2G2 binding site in the well characterized myeloma cell line J558 led to increases in BiP and phospho-eIF2α.
# [7] = system: HEK 293T cells or NIH 3T3 cells; assay: Cell death by microscopy in HEK 293T or NIH 3T3 cells
# Description: as §5
# ERAD substrate CD3-δ = assay: CD3-δ level in co-transfected cells by immunoblotting; details: co-transfection with CD3-δ, immunoblot
# Protocol: as §4
# FIG. 7 depicts the stabilization of CD3-δ protein in cells transfected with the G2BD, but not with the G2BD with amino acids 579-584 (of SEQ ID NO:2) mutated. HEK 293T cells were transfected with the ERAD substrate CD3-δ along with the indicated GFP fusions of gp78. The left and right sides are two separate experiments.
# as §7
# T1 sequence (P62837 whole entry, the tested form may be a part): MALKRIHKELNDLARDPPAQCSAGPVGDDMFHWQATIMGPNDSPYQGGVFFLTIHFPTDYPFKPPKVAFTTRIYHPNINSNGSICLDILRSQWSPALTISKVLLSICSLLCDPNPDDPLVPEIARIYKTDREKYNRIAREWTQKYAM
substance,measurement,setting,value
"GFP-574-611: N-terminal GFP fusion of gp78 residues 574-611, a minimal E2 binding domain (SADERQRMLVQRKDELLQQARKRFLNKSSEDDAASESF; listed as Homo sapiens)",co-immunoprecipitation of endogenous UbcH5B,endogenous UbcH5B,not co-immunoprecipitated
same,CHOP accumulation,NIH 3T3 cells [1],no accumulation
same,ER chaperone BiP level,NIH 3T3 cells [1],increase
same,phospho-eIF2α level,NIH 3T3 cells [1],increase
same,total eIF2α level,NIH 3T3 cells [1],not significantly altered
same,loss of GFP fusion relative to mutant form,NIH 3T3 cells [1]; GFP immunoblot,nor was there any discernable loss
same,co-immunoprecipitation of endogenous Ube2G2,endogenous Ube2G2,sufficient to co-immunoprecipitate endogenous Ube2G2
same,co-immunoprecipitation of endogenous Ube2G1,endogenous Ube2g1,not co-immunoprecipitated
same,"loss of cells expressing the GFP fusion, by microscopy",J558 cells [2],differential loss
same,effect on TCR-α level (stabilization),ERAD substrate TCR-α; listed as G2BD,stabilized
same,effect on TCR-α level (stabilization),ERAD substrate TCR-α; listed as Ube2G2 binding site,markedly stabilized TCR-α
same,apoptosis in human myelomas,[3],leads to apoptosis
same,cell death,"HeLA, U20S and HT1080",lack of increased cell death
same,annexin V staining (apoptosis marker),NIH 3T3 cells [4],No significant increase
same,annexin V staining (apoptosis marker),J558 cells [5],dramatic increase
same,BiP level,J558 cells [6],increases
same,CHOP level,J558 cells [6],marked increase
same,GFP immunoreactivity over time,J558 cells [6],rapid loss
same,phospho-eIF2α level,J558 cells [6],increases
same,cell death by microscopy,[7],no microscopic evidence of increased cell death
same,effect on CD3-δ level (stabilization),ERAD substrate CD3-δ,dramatically stabilized CD3-δ
same,effect on CD3-δ level (stabilization),ERAD substrate CD3-δ; listed as 574-611,sufficient to stabilize CD3-δ
